ChEMBL document CHEMBL3886736, “Substituted sulfonamides useful as antiapoptotic Bcl inhibitors” (2016)

Experiments:
[1] = target: Apoptosis regulator Bcl-2 (Homo sapiens, UniProt P10415); experiment: Fluorescence Polarization Assay (FPA): The assays were performed in black flat-bottom 384-well plates. The final assay volume was 50 μl prepared from additions of Gst-Bcl-2 (Bcl-2: GENBANK® Accession No. P10415), fluoresceinated 18-mer BIM peptide (NH2-[…]-[FAM]) (SEQ ID NO: 1), and test compounds in assay buffer consisting of 20 mM Sodium Phosphate, 1 mM EDTA, 50 mM NaCl, and 0.05% Pluronic Acid. The reaction was incubated at room temperature for 60 minutes and fluorescence polarization of the reaction was detected on the LJL Plate Reader. Inhibition data were calculated from mP values generated by the no protein control reactions for 100% inhibition and vehicle-only reactions for 0% inhibition. The final concentrations of reagents in the assay were 4.9 nM BCL-2, 5 nM fluoresceinated 18-mer BIM peptide and 1% DMSO.
[2] = target: Bcl-2-like protein 1 (Homo sapiens, UniProt Q07817); experiment: Fluorescence Resonance Energy Transfer Assay (FRET): The assays were performed in black flat-bottom 384-well plates. The final assay volume was 55 μl prepared from additions of Biotin-Bcl-xL (Bcl-xL: GENBANK® Accession No. Q07817), fluoresceinated 18-mer BIM peptide (NH2-[…]-[FAM]) (SEQ ID NO: 1), Streptavidin-Terbium FRET detection reagent, and test compounds in assay buffer consisting of 20 mM Sodium Phosphate, 1 mM EDTA, 50 mM NaCl, and 0.05% Pluronic Acid. The reaction was incubated at room temperature for 60 minutes. After 60 minutes, 5 μL of Streptavidin-Terbium FRET detection reagent (Perkin Elmer) was added to the reaction mixture and incubated at room temperature in the dark for 30 mins. The FRET signal generated by the reaction was detected on the Envision Plate Reader Inhibition data were calculated from FRET values generated by the no protein control reactions for 100% inhibition and vehicle-only reactions for 0% inhibition. The final concentration of reagents in the assay was 10 nM Bcl-xL, 5 nM fluo
Chain of Bcl-2-like protein 1 (Q07817 whole entry): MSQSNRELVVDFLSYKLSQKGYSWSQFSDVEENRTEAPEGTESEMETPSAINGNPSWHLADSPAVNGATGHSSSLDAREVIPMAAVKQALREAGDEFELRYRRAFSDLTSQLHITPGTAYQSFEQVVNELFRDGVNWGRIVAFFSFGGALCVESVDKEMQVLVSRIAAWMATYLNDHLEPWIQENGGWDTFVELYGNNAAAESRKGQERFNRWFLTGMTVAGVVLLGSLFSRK

Chain of Apoptosis regulator Bcl-2 (P10415 whole entry): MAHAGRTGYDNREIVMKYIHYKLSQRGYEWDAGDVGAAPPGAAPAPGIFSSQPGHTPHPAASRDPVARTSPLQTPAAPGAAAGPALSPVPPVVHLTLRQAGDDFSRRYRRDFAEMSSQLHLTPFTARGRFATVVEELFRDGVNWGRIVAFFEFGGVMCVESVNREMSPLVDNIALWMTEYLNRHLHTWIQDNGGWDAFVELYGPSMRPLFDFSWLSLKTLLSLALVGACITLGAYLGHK

Row | IC50 [1] | IC50 [2] | SMILES
1 | 120 nM | 60 nM | CCCCN(CCCC)C(=O)c1cn(CCN2CCOCC2)c(-c2ccc(C(=O)NS(=O)(=O)c3ccc4ccccc4c3)cc2C(=O)N2Cc3ccccc3C[C@H]2CO)n1
2 | 50 nM | 8070 nM | Cc1c(Cl)c(C(=O)NCc2ccc(-c3ccc(CC(=O)O)cc3)cc2)nn1-c1ccc(C(=O)NS(=O)(=O)c2ccc3c(c2)CCN3Cc2ccc(Cl)c(Cl)c2)cc1C(=O)N1CCc2ccccc2C1
3 | 200 nM | 30 nM | CCCCN(CCCC)C(=O)c1cn(CCCN(C)C)c(-c2ccc(C(=O)NS(=O)(=O)c3ccc4ccccc4c3)cc2C(=O)N2CCc3ccccc3C2)n1
